According to PubChem BioAssay AID1259407 (Chemical Carcinogenesis Research Information System (CCRIS), 2018):
Active and inactive are the calls of the source. The rule behind the calls is not given here.

System: CCRIS mutagenicity, Ames/micronucleus/aberration tests
Assay: CCRIS mutagenicity studies
[1] = Test System: AMES SALMONELLA TYPHIMURIUM, Strain/Indicator: TA98, Metabolic Activation: NONE, Method: STANDARD PLATE
[2] = Test System: AMES SALMONELLA TYPHIMURIUM, Strain/Indicator: TA98, Metabolic Activation: RAT, LIVER, S-9, AROCLOR 1254, Method: STANDARD PLATE
[3] = Test System: AMES SALMONELLA TYPHIMURIUM, Strain/Indicator: TA100, Metabolic Activation: NONE, Method: STANDARD PLATE
[4] = Test System: AMES SALMONELLA TYPHIMURIUM, Strain/Indicator: TA100, Metabolic Activation: RAT, LIVER, S-9, AROCLOR 1254, Method: STANDARD PLATE
[5] = Test System: AMES SALMONELLA TYPHIMURIUM, Strain/Indicator: TA1535, Metabolic Activation: NONE, Method: STANDARD PLATE
[6] = Test System: AMES SALMONELLA TYPHIMURIUM, Strain/Indicator: TA1535, Metabolic Activation: RAT, LIVER, S-9, AROCLOR 1254, Method: STANDARD PLATE
[7] = Test System: AMES SALMONELLA TYPHIMURIUM, Strain/Indicator: TA1537, Metabolic Activation: NONE, Method: STANDARD PLATE
[8] = Test System: AMES SALMONELLA TYPHIMURIUM, Strain/Indicator: TA1537, Metabolic Activation: RAT, LIVER, S-9, AROCLOR 1254, Method: STANDARD PLATE
[9] = Test System: AMES SALMONELLA TYPHIMURIUM, Strain/Indicator: TA1538, Metabolic Activation: NONE, Method: STANDARD PLATE
[10] = Test System: AMES SALMONELLA TYPHIMURIUM, Strain/Indicator: TA1538, Metabolic Activation: RAT, LIVER, S-9, AROCLOR 1254, Method: STANDARD PLATE
[11] = Test System: AMES SALMONELLA TYPHIMURIUM, Strain/Indicator: TA98, Metabolic Activation: NONE, Method: PREINCUBATION

Measured: mutagenic call

c1ccc2c(c1)CCCC2
active: Test System: MOUSE LYMPHOMA, Strain/Indicator: L5178Y (TK+/TK-), Metabolic Activation: RAT, LIVER, S-9, AROCLOR 1254, Method: SUSPENSION/PLATE active; positive. reevaluation of results: equivocal
inactive: Test System: AMES SALMONELLA TYPHIMURIUM, Strain/Indicator: TA98, Metabolic Activation: HAMSTER, LIVER, S-9, AROCLOR 1254, Method: STANDARD PLATE inactive; negative | [1] inactive; negative | [2] inactive; negative | Test System: AMES SALMONELLA TYPHIMURIUM, Strain/Indicator: TA100, Metabolic Activation: HAMSTER, LIVER, S-9, AROCLOR 1254, Method: STANDARD PLATE inactive; negative | [3] inactive; negative | [4] inactive; negative | Test System: AMES SALMONELLA TYPHIMURIUM, Strain/Indicator: TA1535, Metabolic Activation: HAMSTER, LIVER, S-9, AROCLOR 1254, Method: STANDARD PLATE inactive; negative | [5] inactive; negative | [6] inactive; negative | Test System: AMES SALMONELLA TYPHIMURIUM, Strain/Indicator: TA1537, Metabolic Activation: HAMSTER, LIVER, S-9, AROCLOR 1254, Method: STANDARD PLATE inactive; negative | [7] inactive; negative | [8] inactive; negative | Test System: AMES SALMONELLA TYPHIMURIUM, Strain/Indicator: TA1538, Metabolic Activation: HAMSTER, LIVER, S-9, AROCLOR 1254, Method: STANDARD PLATE inactive; negative | [9] inactive; negative | [10] inactive; negative

CCCCOC(=O)C=Cc1ccc([N+](=O)[O-])o1
active: [11] active; positive

C[C@]12CC[C@@H]3c4ccc(O)cc4CC[C@H]3[C@@]13CC[C@]2(O)[C@H](O)C3
inactive: End Point: IN VITRO CHROMOSOMAL ABERRATIONS, Test System: HUMAN PERIPHERAL LYMPHOCYTES, Metabolic Activation: NONE inactive; negative | End Point: IN VITRO CHROMOSOMAL ABERRATIONS, Test System: HUMAN PERIPHERAL LYMPHOCYTES, Metabolic Activation: RAT, LIVER, S-9, AROCLOR 1254 inactive; negative | [11] inactive; negative | [1] inactive; negative | Test System: AMES SALMONELLA TYPHIMURIUM, Strain/Indicator: TA98, Metabolic Activation: RAT, LIVER, S-9, AROCLOR 1254, Method: PREINCUBATION inactive; negative | [2] inactive; negative | Test System: AMES SALMONELLA TYPHIMURIUM, Strain/Indicator: TA100, Metabolic Activation: NONE, Method: PREINCUBATION inactive; negative | [3] inactive; negative | Test System: AMES SALMONELLA TYPHIMURIUM, Strain/Indicator: TA100, Metabolic Activation: RAT, LIVER, S-9, AROCLOR 1254, Method: PREINCUBATION inactive; negative | [4] inactive; negative | Test System: AMES SALMONELLA TYPHIMURIUM, Strain/Indicator: TA1535, Metabolic Activation: NONE, Method: PREINCUBATION inactive; negative | [5] inactive; negative | Test System: AMES SALMONELLA TYPHIMURIUM, Strain/Indicator: TA1535, Metabolic Activation: RAT, LIVER, S-9, AROCLOR 1254, Method: PREINCUBATION inactive; negative | [6] inactive; negative | Test System: AMES SALMONELLA TYPHIMURIUM, Strain/Indicator: TA1537, Metabolic Activation: NONE, Method: PREINCUBATION inactive; negative | [7] inactive; negative | Test System: AMES SALMONELLA TYPHIMURIUM, Strain/Indicator: TA1537, Metabolic Activation: RAT, LIVER, S-9, AROCLOR 1254, Method: PREINCUBATION inactive; negative | [8] inactive; negative | Test System: AMES SALMONELLA TYPHIMURIUM, Strain/Indicator: TA1538, Metabolic Activation: NONE, Method: PREINCUBATION inactive; negative | [9] inactive; negative | Test System: AMES SALMONELLA TYPHIMURIUM, Strain/Indicator: TA1538, Metabolic Activation: RAT, LIVER, S-9, AROCLOR 1254, Method: PREINCUBATION inactive; negative | [10] inactive; negative | Test System: CHINESE HAMSTER V-79, Strain/Indicator: V-79 (HGPRT)/6-THIOGUANINE, Metabolic Activation: NONE inactive; negative | Test System: CHINESE HAMSTER V-79, Strain/Indicator: V-79 (HGPRT)/6-THIOGUANINE, Metabolic Activation: RAT, LIVER, S-9, AROCLOR 1254 inactive; negative

CN(C)C(=S)SNCCNSC(=S)N(C)C
inactive: Test System: AMES SALMONELLA TYPHIMURIUM, Strain/Indicator: TA100, Metabolic Activation: S-9 MIX, Method: STANDARD PLATE inactive; negative
active: [3] active; positive

CC#CC(OC(=O)NC1CCCCC1)(c1ccccc1)c1ccccc1
active: [3] active; positive

C=COC(N)=O
active: End Point: In vivo micronucleus, Test System: Peripheral blood reticulocytes, Species: Mouse, Strain/Sex: F1 (Big Blue x A/J) transgenic/Male and female, Route: Intraperitoneal active; positive | Test System: UDS MOUSE SPERMATIDS, Strain/Indicator: THY INCORP, Metabolic Activation: NONE active; positive

[Cl][Pt][Cl].c1cc2c3c(c1)CCCN3CCC2
active: Test System: E. COLI, Strain/Indicator: TM9, Metabolic Activation: NONE, Method: STANDARD PLATE active; positive
inactive: Test System: AMES SALMONELLA TYPHIMURIUM, Strain/Indicator: TA92, Metabolic Activation: NONE, Method: STANDARD PLATE inactive; negative | [1] inactive; negative | [3] inactive; negative | Test System: AMES SALMONELLA TYPHIMURIUM, Strain/Indicator: TA2410, Metabolic Activation: NONE, Method: STANDARD PLATE inactive; negative | Test System: E. COLI, Strain/Indicator: TM6, Metabolic Activation: NONE, Method: STANDARD PLATE inactive; negative
